# Key:
# B16 melanoma = assay: In vivo antitumour activity against B16 melanoma grafted subcutaneously in mice, oral administration; conditions: for T − C in days 750 mg: tumours reaching 750 mg
# Source text: This activity of the compounds of the invention on […] tumours was studied on the B16 melanoma. […]
# A product is considered to be active if log10 cell kill is greater than or equal to 0.7. A product is considered to be very active if log10 cell kill is greater than 2.8.
# The animals bearing the tumours are randomized before being subjected to the various treatments and controls. In the case of treatment of tumours of the present invention, the treatment was started at an early stage, 3 to 4 days after implantation. […]
# The tumours are measured two or three times a week until the tumour reaches approximately 2 g or until the death of the animal if the latter occurs before the tumour reaches 2 g. The animals are autopsied at the time of sacrifice.
# The antitumour activity is determined according to the various parameters recorded.
# human KDR enzyme = target: T1, human KDR enzyme (Homo sapiens, UniProt P35968); assay: KDR kinase inhibition, phosphorylation of PLCγ substrate, scintillation Flash Plate; assay type: biochemical; conditions: read-out: KDR, concentration that inhibits 50% of the kinase activity
# T1 construct: The cytoplasmic domain (residues 790 to 1356) of the human KDR enzyme; GST; made in house; host or cells: SF21 insect cells (baculovirus, pFastBac)
# Method: The inhibitory effect of the compounds is determined in an in vitro test of phosphorylation of substrate via a scintillation technique (96-well plate of basic Flash Plate type).
# The cytoplasmic domain (residues 790 to 1356) of the human KDR enzyme was cloned in the form of a GST fusion in the pFastBac baculovirus expression vector. The protein was expressed in the SF21 cells, purified and activated by autophosphorylation. The substrate is composed of residues 658 to 850 of the PLCγ expressed and purified in the form of a GST fusion protein.
# The KDR kinase activity is measured in the buffer 20 mM MOPS, 10 mM MgCl2, 10 mM MnCl2, 1 mM DTT, pH=7.4. The compounds are initially diluted in 100% DMSO, then prepared as a 10× solution in 30% DMSO/70% buffer. […] The radioactivity in each well is measured using a Trilux-βWallac radioactivity counter.
# The background noise is determined by measuring the radioactivity in four different wells containing ATP (radiolabeled and cold) and the substrate, in the absence of enzyme and of compound. The control activity is measured in four different wells containing all the reagents, but in the absence of compound.
# The inhibition of the KDR activity with the compound of the invention is expressed as a percentage of inhibition of the control activity determined in the absence of compound.
# FLT1 = FLT1 (Homo sapiens, UniProt P17948); assay: FLT1 kinase phosphorylation activity by radioactive labeling; assay type: biochemical; conditions: read-out: FLT1, concentration that inhibits 50% of the kinase activity
# Method: 3. […] The inhibition of the FLT1 activity is calculated and expressed as percentage of inhibition relative to the control activity determined in the absence of compound. The percentage of inhibition corresponding to each concentration of molecules is calculated thus: % inhibition=(mean CPM of the control wells−CPM of each)
# human hepatocytes = assay: Intrinsic clearance using human hepatocytes; assay type: in vitro ADME; conditions: for intrinsic clearance value: 5 μM, 0-24 hours; for inter-individual variability of intrinsic clearance: cryopreserved and fresh donor preparations
# Method: Evaluation of the intrinsic clearance of the compounds using human hepatocytes: experimental protocol.
# NB: The in vitro test described below on human liver cells is used to predict an important pharmacokinetic parameter: the metabolization by the liver for a given compound when it is administered to man.
# Incubations of cryopreserved preparations of human hepatocytes (from IVT: IVT-TLN-180608 from In Vitro Technologies, inc. Baltimore, Md., USA) and fresh preparations of human hepatocytes (from Biopredic: HEP200239) were carried out in plates comprising 48 collagen-coated wells.
# The kinetics were initiated by the addition, to the culture medium, of the compounds at a final concentration of 5 μM, in the absence or in the presence of 10 μM ketoconazole (CYP3A4 inhibitor). The incubation volume is 100 μl, the incubation time: 0-24 hours (standard kinetic points: 0-0.5-1-2-4-6-8-24 hours).
# The kinetics were stopped by addition of acetonitrile/water, with corticosterone, as an internal standard. The cells were detached then lysed. The intracellular and extracellular media were recombined and frozen (−20° C.) in order to be stored until the LC-MS/MS analysis.
# The combined extracellular and intracellular media were defrosted, submitted to ultrasound action, agitated with a vortex and centrifuged at 3000 g for 20 minutes. The supernatants were injected and analysed by LC-MS/MS.
# The maximum initial in vitro rate was calculated for the specific metabolites of the P450 cytochromes and expressed in nmol/hour/million of cells. V=[concentration at T(n)−concentration at T(n−1)]/[T(n)−T(n−1)]
# The intrinsic clearance was determined and expressed in ml/hour/million of cells Clint=dose/AUC0-24 h Dose=amount at T(0)(nmol/million of cells)
# AUC0-24 h: calculated by WinNonlin, with a non-compartmental analysis modeling an intravenous injection of bolus type
# From IVT: ● IVT, TLN group: person
# From Biopredic: ● HEP200239: person, unknown
# FGFR1 = FGFR1 (Homo sapiens, UniProt P11362); assay: FGFR kinase phosphorylation activity by radioactive labeling; assay type: biochemical; conditions: read-out: FGFR1, concentration that inhibits 50% of the kinase activity
# Method: 5. Screening of Molecules by Measuring, by Radioactive Labeling, the FGFR Kinase Phosphorylation Activity in the Presence of PLCγ Substrate
# The test is carried out in a similar manner to that carried out with the FLT1 enzyme by using, instead of 13 nM of Flt1, 27 nM of FGFR enzyme and mixed in the 96-well plates are 18 μl of GST-FGFR enzyme at 1.1 mg/ml (for a purity of 100%): (batch JCE3666).
# [1] = PO 62 mg/kg/adm, days 4-14 (2x/d)
# [2] = PO 99 mg/kg/adm, days 4-14 (2x/d)
# [3] = PO 160.0 mg/kg/adm, days 4-14 (2x/d)
# [4] = PO 61.5 mg/kg/adm, day 3-10 (2x/d)
# [5] = PO 99.2 mg/kg/adm, day 3-10 (2x/d)
# Sequence of FGFR1 (P11362 22-822, species assumed): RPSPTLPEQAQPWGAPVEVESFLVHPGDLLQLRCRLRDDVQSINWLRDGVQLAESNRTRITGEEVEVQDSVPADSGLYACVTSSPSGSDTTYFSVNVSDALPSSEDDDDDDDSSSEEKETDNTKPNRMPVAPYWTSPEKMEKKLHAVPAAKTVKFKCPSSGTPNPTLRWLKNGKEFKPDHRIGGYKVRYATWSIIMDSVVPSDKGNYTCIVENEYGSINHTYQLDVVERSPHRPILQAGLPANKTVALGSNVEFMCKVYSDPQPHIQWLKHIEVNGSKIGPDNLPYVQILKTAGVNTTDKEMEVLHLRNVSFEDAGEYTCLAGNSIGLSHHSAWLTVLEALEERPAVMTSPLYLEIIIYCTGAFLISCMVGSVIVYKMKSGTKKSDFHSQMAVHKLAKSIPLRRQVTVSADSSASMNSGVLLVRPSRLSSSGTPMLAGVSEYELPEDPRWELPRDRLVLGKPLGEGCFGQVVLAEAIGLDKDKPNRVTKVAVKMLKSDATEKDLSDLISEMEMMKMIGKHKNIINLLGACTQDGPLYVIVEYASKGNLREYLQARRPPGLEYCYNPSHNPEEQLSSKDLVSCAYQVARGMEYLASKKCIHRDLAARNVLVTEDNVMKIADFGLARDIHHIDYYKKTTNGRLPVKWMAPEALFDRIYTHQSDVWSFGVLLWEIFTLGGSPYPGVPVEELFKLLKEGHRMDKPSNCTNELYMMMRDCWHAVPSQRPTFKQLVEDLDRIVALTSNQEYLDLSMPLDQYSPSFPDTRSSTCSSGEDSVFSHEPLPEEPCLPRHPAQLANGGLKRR
# T1 sequence (P35968 790-1356): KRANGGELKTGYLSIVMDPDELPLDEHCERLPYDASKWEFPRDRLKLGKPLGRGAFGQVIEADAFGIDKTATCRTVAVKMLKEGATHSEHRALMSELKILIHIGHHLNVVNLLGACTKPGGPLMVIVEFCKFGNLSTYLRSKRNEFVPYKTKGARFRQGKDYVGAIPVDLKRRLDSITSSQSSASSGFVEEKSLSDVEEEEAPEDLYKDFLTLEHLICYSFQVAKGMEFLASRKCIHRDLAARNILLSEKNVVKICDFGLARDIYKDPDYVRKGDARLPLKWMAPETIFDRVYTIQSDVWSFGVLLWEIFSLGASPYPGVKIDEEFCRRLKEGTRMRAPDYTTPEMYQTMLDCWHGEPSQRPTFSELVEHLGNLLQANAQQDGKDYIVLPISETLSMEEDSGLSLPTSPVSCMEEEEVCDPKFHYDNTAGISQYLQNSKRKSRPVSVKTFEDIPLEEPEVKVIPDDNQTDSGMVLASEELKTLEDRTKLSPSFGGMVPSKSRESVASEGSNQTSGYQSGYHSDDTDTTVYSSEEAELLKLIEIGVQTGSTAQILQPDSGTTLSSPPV
# Sequence of FLT1 (P17948 27-1338, species assumed): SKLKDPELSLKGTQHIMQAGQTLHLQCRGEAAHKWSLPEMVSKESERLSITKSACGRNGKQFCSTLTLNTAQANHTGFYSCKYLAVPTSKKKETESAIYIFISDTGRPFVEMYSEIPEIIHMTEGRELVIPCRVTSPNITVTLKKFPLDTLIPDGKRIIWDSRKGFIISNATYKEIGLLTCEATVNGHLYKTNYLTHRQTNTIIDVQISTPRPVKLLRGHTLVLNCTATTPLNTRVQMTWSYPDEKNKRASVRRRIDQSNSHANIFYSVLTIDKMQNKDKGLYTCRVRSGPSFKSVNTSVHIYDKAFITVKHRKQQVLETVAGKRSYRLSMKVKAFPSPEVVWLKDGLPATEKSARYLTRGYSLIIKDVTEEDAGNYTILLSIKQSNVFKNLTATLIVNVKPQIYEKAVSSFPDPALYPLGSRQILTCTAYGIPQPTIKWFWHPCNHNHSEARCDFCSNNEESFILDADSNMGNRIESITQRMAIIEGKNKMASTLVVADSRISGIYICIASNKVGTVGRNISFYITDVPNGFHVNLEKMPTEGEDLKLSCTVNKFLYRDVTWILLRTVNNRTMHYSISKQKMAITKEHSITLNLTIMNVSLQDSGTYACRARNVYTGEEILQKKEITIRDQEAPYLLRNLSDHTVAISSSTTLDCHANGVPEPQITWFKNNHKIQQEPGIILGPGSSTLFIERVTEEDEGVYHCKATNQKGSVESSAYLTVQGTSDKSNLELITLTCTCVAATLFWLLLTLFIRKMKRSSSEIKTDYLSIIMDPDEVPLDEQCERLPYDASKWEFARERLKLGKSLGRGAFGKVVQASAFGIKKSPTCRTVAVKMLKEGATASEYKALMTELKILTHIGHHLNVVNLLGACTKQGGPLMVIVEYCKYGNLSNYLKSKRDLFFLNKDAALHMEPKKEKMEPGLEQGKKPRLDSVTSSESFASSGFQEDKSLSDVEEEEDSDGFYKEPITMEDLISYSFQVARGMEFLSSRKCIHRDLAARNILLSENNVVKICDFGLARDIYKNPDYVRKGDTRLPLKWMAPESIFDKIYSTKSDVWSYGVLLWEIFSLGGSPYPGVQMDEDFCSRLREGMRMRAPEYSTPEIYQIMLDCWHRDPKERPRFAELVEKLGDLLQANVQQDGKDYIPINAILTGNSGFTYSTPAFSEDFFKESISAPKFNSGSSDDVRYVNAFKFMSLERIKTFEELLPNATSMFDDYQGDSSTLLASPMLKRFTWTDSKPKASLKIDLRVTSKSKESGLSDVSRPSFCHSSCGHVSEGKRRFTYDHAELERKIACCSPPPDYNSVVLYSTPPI
smiles,measurement,setting,value
"Cl.NC(=O)c1n[nH]cc1NCc1cc(F)cc(NC(=O)Nc2ccc(C(F)(F)F)cc2Cl)c1 [Example 1, 4-{3-[3-(2-Chloro-4-trifluoromethylphenyl)ureido]-5-fluorobenzylamino}-1H-pyrazole-3-carboxamide hydrochloride]",Comments,"B16 melanoma; PO 44 mg/kg/adm, day 4-14",Inactive
same,Death due to the product (day of death),"B16 melanoma; PO 44 mg/kg/adm, day 4-14, total 481 mg/kg, BCM-1948",0/5
same,Average weight of the tumour in mg on day 13,"B16 melanoma; PO 44 mg/kg/adm, day 4-14",686 mg
same,T/C in % day 13,"B16 melanoma; PO 44 mg/kg/adm, day 4-14",51%
same,% BWC (day of low point),"B16 melanoma; PO 44 mg/kg/adm, day 4-14, low point day 15",+10.6 (15) %
same,Comments,B16 melanoma; [1],Active
same,Total log cell kill,B16 melanoma; [1],2.3
same,Death due to the product (day of death),"B16 melanoma; PO 62 mg/kg/adm, days 4-14 (2x/d), total 1232 mg/kg, BCM-1948",0/5
same,Average weight of the tumour in mg on day 13,B16 melanoma; [1],128 mg
same,T/C in % day 13,B16 melanoma; [1],10%
same,% BWC (day of low point),"B16 melanoma; PO 62 mg/kg/adm, days 4-14 (2x/d), low point day 5",+1.8 (5) %
same,T − C in days 750 mg,B16 melanoma; [1],6.2 days
same,Comments,B16 melanoma; [2],Active
same,Total log cell kill,B16 melanoma; [2],2.3
same,Death due to the product (day of death),"B16 melanoma; PO 99 mg/kg/adm, days 4-14 (2x/d), total 1966 mg/kg, BCM-1948",0/5
same,Average weight of the tumour in mg on day 13,B16 melanoma; [2],72 mg
same,T/C in % day 13,B16 melanoma; [2],5%
same,% BWC (day of low point),"B16 melanoma; PO 99 mg/kg/adm, days 4-14 (2x/d), low point day 5",−1.0 (5) %
same,T − C in days 750 mg,B16 melanoma; [2],6.2 days
same,Total log cell kill,B16 melanoma; [3],2.6
same,Death due to the product (day of death),"B16 melanoma; PO 160.0 mg/kg/adm, days 4-14 (2x/d), total 3178 mg/kg, BCM-1948",0/5
same,Comments,"B16 melanoma; PO 160.0 mg/kg/adm, days 4-14 (2x/d), HDT = highest dose tested",HDT active
same,Average weight of the tumour in mg on day 13,B16 melanoma; [3],23 mg
same,T/C in % day 13,B16 melanoma; [3],2%
same,% BWC (day of low point),"B16 melanoma; PO 160.0 mg/kg/adm, days 4-14 (2x/d), low point day 6",−2.3 (6) %
same,T − C in days 750 mg,B16 melanoma; [3],6.8 days
same,IC50,human KDR enzyme,3 nM
same,IC50,FLT1,3 nM
same,classification of the intrinsic clearance,human hepatocytes,intermediate (Clint<0.040 ml·h^−1·10^−6 cell: intermediate intrinsic clearance)
same,intrinsic clearance value,human hepatocytes,0.057 ml/hour/million of cells
same,inter-individual variability of intrinsic clearance,human hepatocytes,low
same,IC50,FGFR1,54 nM
"Cl.NC(=O)c1n[nH]cc1NCc1cc(F)cc(NC(=O)Nc2ccc(C(F)(F)F)cc2F)c1 [Example 2, 4-{3-[3-(2-Fluoro-4-trifluoromethylphenyl)ureido]-5-fluorobenzylamino}-1H-pyrazole-3-carboxamide hydrochloride]",Comments,"B16 melanoma; PO 44.0 mg/kg/adm, day 3-10",Active
same,Total log cell kill,"B16 melanoma; PO 44.0 mg/kg/adm, day 3-10",1.0
same,Death due to the product (day of death),"B16 melanoma; PO 44.0 mg/kg/adm, day 3-10, total 352.0 mg/kg, BCM-1979",0/6
same,Average weight of the tumour in mg on day 11,"B16 melanoma; PO 44.0 mg/kg/adm, day 3-10",201 mg
same,T/C in % day 11,"B16 melanoma; PO 44.0 mg/kg/adm, day 3-10",27%
same,% BWC (day of low point),"B16 melanoma; PO 44.0 mg/kg/adm, day 3-10, low point day 11",+6.6 (11) %
same,T − C in days 750 mg,"B16 melanoma; PO 44.0 mg/kg/adm, day 3-10",3.0 days
same,Comments,B16 melanoma; [4],Active
same,Total log cell kill,B16 melanoma; [4],1.7
same,Death due to the product (day of death),"B16 melanoma; PO 61.5 mg/kg/adm, day 3-10 (2x/d), total 984 mg/kg, BCM-1979",0/6
same,Average weight of the tumour in mg on day 11,B16 melanoma; [4],46 mg
same,T/C in % day 11,B16 melanoma; [4],6%
same,% BWC (day of low point),"B16 melanoma; PO 61.5 mg/kg/adm, day 3-10 (2x/d), low point day 11",+3.9 (11) %
same,T − C in days 750 mg,B16 melanoma; [4],5.0 days
same,Total log cell kill,B16 melanoma; [5],1.8
same,Death due to the product (day of death),"B16 melanoma; PO 99.2 mg/kg/adm, day 3-10 (2x/d), total 1587.2 mg/kg, BCM-1979",0/6
same,Comments,"B16 melanoma; PO 99.2 mg/kg/adm, day 3-10 (2x/d), HNTD = highest nontoxic dose",HNTD active
same,Average weight of the tumour in mg on day 11,B16 melanoma; [5],0 mg
same,T/C in % day 11,B16 melanoma; [5],0%
same,% BWC (day of low point),"B16 melanoma; PO 99.2 mg/kg/adm, day 3-10 (2x/d), low point day 11",−8.1 (11) %
same,T − C in days 750 mg,B16 melanoma; [5],5.4 days
same,Comments,"B16 melanoma; PO 160.0 mg/kg/adm, day 3-10 (2x/d)",Toxic
same,Death due to the product (day of death),"B16 melanoma; PO 160.0 mg/kg/adm, day 3-10 (2x/d), total 2560.0 mg/kg, BCM-1979, days of death 10, 2d11, 13, 2d14",6/6
same,% BWC (day of low point),"B16 melanoma; PO 160.0 mg/kg/adm, day 3-10 (2x/d), low point day 13",−26.5 (13) %
same,IC50,human KDR enzyme,2 nM
same,IC50,FLT1,1.3 nM
same,classification of the intrinsic clearance,human hepatocytes,intermediate (Clint<0.040 ml·h^−1·10^−6 cell: intermediate intrinsic clearance)
same,intrinsic clearance value,human hepatocytes,0.055 ml/h/million of cells
same,inter-individual variability of intrinsic clearance,human hepatocytes,low
same,IC50,FGFR1,92 nM
